According to PMC11013252, “Exploration of the Antibacterial and Anti-Inflammatory Activity of a Novel Antimicrobial Peptide Brevinin-1BW” (Molecules, 2024):
Converted amounts (≈) assume the structure as drawn. Positions of bridges follow the written chain, without caps; N, C: chain ends. No end group written: not given here.

Assays:
[1] = system: S. aureus; conditions: ref [44],[45],[46],[47]; cited from earlier work
Excerpt: Table 5 Comparison of MICs of Brevinin-1BW and related AMPs congeners against specific microorganisms. | column: MIC (µM) / S. aureus

[2] = system: MRSA/MDR S. aureus; conditions: ref [44],[45],[46],[47]; cited from earlier work
Excerpt: Table 5 Comparison of MICs of Brevinin-1BW and related AMPs congeners against specific microorganisms. | column: MIC (µM) / MRSA/MDR S. aureus

[3] = system: E. faecalis; conditions: ref [44],[45],[46],[47]; cited from earlier work
Excerpt: Table 5 Comparison of MICs of Brevinin-1BW and related AMPs congeners against specific microorganisms. | column: MIC (µM) / E. faecalis

[4] = system: S. epidermidis (CI 1607BL1D39); test: microbe, parasite or virus in culture; assay type: cell-based, Staphylococcus epidermidis; conditions: Staphylococcus epidermidis; S. epidermidis (CI 1607BL1D39), clinical isolate; CLSI two-fold dilution, MH medium, 1 × 10^6 CFU/mL, 37 °C, 18 h, OD600; 9 replicates of 3 independent experiments; read-out: MIC
Method: (§1) The minimum inhibitory concentration (MIC) of the Brevinin-1BW was measured in 96-well microtiter plates according to the Clinical and Laboratory Standards Institute (CLSI). The activated strains were treated with Mueller Hinton Agar (MHA) solid medium. Single colonies were picked and expanded to the logarithmic growth phase, and the solution was diluted to 2 × 10^6 CFU/mL using the McFarland turbidity standard. The MIC was determined with the two-fold dilution method. Briefly, 50 μL of Mueller Hinton (MH) medium was added to a 96-well plate in advance. Then, 50 μL of AMP solution was added to the first well, and 50 μL was pipetted into the next well after mixing using a row gun, while 50 μL was discarded from the last well. Final concentrations of Brevinin-1BW were 100, 50, 25, 12.5, 6.25, and 3.125 μg/mL. A 50 μL volume of the diluted bacterial solution was added, and the final concentration of the bacterial solution was 1 × 10^6 CFU/mL. This was then placed into a 37 °C incubator for 18 h until the next day to observe the degree of turbidity of the 96-well plate and measure the absorbance of the wells at 600 nm with a multifunctional microplate reader (SpectraMax iD5, Molecular Devices, Sunnyvale, CA, USA). The absence of turbidity and the measured concentration of absorbance being less than the opposing group was taken as the MIC. The positive control used ampicillin at the same final concentration as Brevinin-1BW, the negative control used 50 μL of MH medium mixed with 50 μL of 2 × 10^6 CFU/mL bacterial solution, and the blank contained only 100 μL of MH medium. Three replicate wells were set up for each experiment, and each experiment was repeated three times. The MIC and all concentrations above the MIC of bacterial solution coated on MHA solid medium were placed into 37 °C incubator incubation for 18 h. The lowest concentration resulting in no colony growth was taken as the minimum bactericidal concentration (MBC).

[5] = system: S. haemolyticus (CI 1607BLD590); test: microbe, parasite or virus in culture; assay type: cell-based, Staphylococcus haemolyticus; conditions: Staphylococcus haemolyticus; S. haemolyticus (CI 1607BLD590), clinical isolate; CLSI two-fold dilution, MH medium, 1 × 10^6 CFU/mL, 37 °C, 18 h, OD600; 9 replicates of 3 independent experiments; read-out: MIC
Method: as §1

[6] = system: E. coli (ATCC25922); test: microbe, parasite or virus in culture; assay type: cell-based; conditions: Escherichia coli; E. coli (ATCC25922); CLSI two-fold dilution, MH medium, 1 × 10^6 CFU/mL, 37 °C, 18 h, OD600; 9 replicates of 3 independent experiments; read-out: MIC
Method: as §1

[7] = system: P. aeruginosa (ATCC27853); test: microbe, parasite or virus in culture; assay type: cell-based, Pseudomonas aeruginosa; conditions: Pseudomonas aeruginosa; P. aeruginosa (ATCC27853); CLSI two-fold dilution, MH medium, 1 × 10^6 CFU/mL, 37 °C, 18 h, OD600; 9 replicates of 3 independent experiments; read-out: MIC
Method: as §1

[8] = system: E. hormaechei (ATCC700323); test: microbe, parasite or virus in culture; assay type: cell-based, Enterobacter hormaechei; conditions: Enterobacter hormaechei; E. hormaechei (ATCC700323); CLSI two-fold dilution, MH medium, 1 × 10^6 CFU/mL, 37 °C, 18 h, OD600; 9 replicates of 3 independent experiments; read-out: MIC
Method: as §1

[9] = system: C. koseri (CI 1611SED223); test: microbe, parasite or virus in culture; assay type: cell-based, Citrobacter koseri; conditions: Citrobacter koseri; C. koseri (CI 1611SED223), clinical isolate; CLSI two-fold dilution, MH medium, 1 × 10^6 CFU/mL, 37 °C, 18 h, OD600; 9 replicates of 3 independent experiments; read-out: MIC
Method: as §1

[10] = system: K. pneumoniae (ATCC700603); test: microbe, parasite or virus in culture; assay type: cell-based, Klebsiella pneumoniae; conditions: Klebsiella pneumoniae; K. pneumoniae (ATCC700603); CLSI two-fold dilution, MH medium, 1 × 10^6 CFU/mL, 37 °C, 18 h, OD600; 9 replicates of 3 independent experiments; read-out: MIC
Method: as §1

[11] = system: E. coli (MDR ATCC35218); test: microbe, parasite or virus in culture; assay type: cell-based, Escherichia coli; conditions: Escherichia coli; E. coli (MDR ATCC35218); CLSI two-fold dilution, MH medium, 1 × 10^6 CFU/mL, 37 °C, 18 h, OD600; 9 replicates of 3 independent experiments; read-out: MIC
Method: as §1

[12] = system: S. saprophytics (ATCCBAA750); test: microbe, parasite or virus in culture; assay type: cell-based, Staphylococcus saprophyticus; conditions: Staphylococcus saprophyticus; S. saprophytics (ATCCBAA750); CLSI two-fold dilution, MH medium, 1 × 10^6 CFU/mL, 37 °C, 18 h, OD600; 9 replicates of 3 independent experiments; read-out: MIC
Method: as §1

[13] = system: S. aureus (ATCC25923); test: microbe, parasite or virus in culture; assay type: cell-based, Staphylococcus aureus; conditions: Staphylococcus aureus; S. aureus (ATCC25923); CLSI two-fold dilution, MH medium, 1 × 10^6 CFU/mL, 37 °C, 18 h, OD600; 9 replicates of 3 independent experiments; read-out: MIC
Method: as §1

[14] = system: S. aureus (MDR ATCC29213); test: microbe, parasite or virus in culture; assay type: cell-based, Staphylococcus aureus; conditions: Staphylococcus aureus; S. aureus (MDR ATCC29213); CLSI two-fold dilution, MH medium, 1 × 10^6 CFU/mL, 37 °C, 18 h, OD600; 9 replicates of 3 independent experiments; read-out: MIC
Method: as §1

[15] = system: E. faecalis (ATCC29212); test: microbe, parasite or virus in culture; assay type: cell-based, Enterococcus faecalis; conditions: Enterococcus faecalis; E. faecalis (ATCC29212); CLSI two-fold dilution, MH medium, 1 × 10^6 CFU/mL, 37 °C, 18 h, OD600; 9 replicates of 3 independent experiments; read-out: MIC
Method: as §1

FLGALFKVASKLVPAAICSISKKC (disulfide 18-24 (inferred)) [Brevinin-1GHd, related Brevinin-1 family AMP from publications]
MIC [1]: 2 µM | MIC [2]: 4 µM

FLPAVLRVAAKVVPTVFCLISKKC (disulfide 18-24 (inferred)) [Brevinin-1JDc, related Brevinin-1 family AMP from publications]
MIC [1]: 6 µM | MIC [2]: 3 µM

FLGSIVGALASALPSLISKIRN [Brevinin1TSa, related Brevinin-1 family AMP from publications]
MIC [1]: 25 µM | MIC [2]: 25 µM | MIC [3]: 50 µM

FLPGVLRLVTKVGPAVVCAITRNC (disulfide 18-24 (inferred)) [Brevinin-1ISa, related Brevinin-1 family AMP from publications]
MIC [1]: 3.1 µM | MIC [2]: 3.1 µM

FLPAVIRVAANVLPTVFCAISKKC (disulfide 18-24 (inferred)) [Brevinin-1JDa, related Brevinin-1 family AMP from publications]
MIC [1]: 6 µM | MIC [2]: 13 µM

CC1(C)S[C@@H]2[C@H](NC(=O)[C@H](N)c3ccccc3)C(=O)N2[C@H]1C(=O)O [Ampicillin, reference compound]
MIC [4]: 3.12 µg/mL (≈ 8.94 µM) | MIC [5]: > 100 µg/mL | MIC [6]: 100 µg/mL (≈ 286 µM) | MIC [7]: > 100 µg/mL | MIC [8]: > 100 µg/mL | MIC [9]: > 100 µg/mL | MIC [10]: > 100 µg/mL | MIC [11]: > 100 µg/mL | MIC [12]: 3.12 µg/mL (≈ 8.94 µM) | MIC [13]: 3.12 µg/mL (≈ 8.94 µM) | MIC [14]: > 100 µg/mL | MIC [15]: 3.12 µg/mL (≈ 8.94 µM)

FLGAVLKVAGKLVPAAICKISKKC (disulfide 18-24 (inferred)) [Brevinin-1GHa, related Brevinin-1 family AMP from publications]
MIC [1]: 2 µM | MIC [2]: 4 µM | MIC [3]: 8 µM
